Results: patent US20240124439A1, “Pyrido[2,3-D]Imidazole Derivatives and Their Use As Inhibitors of ITK for the Treatment of Skin Disease” (Pfizer Inc., priority 2020, published 2024)

Assays:
[1] = biological target: Tropomyosin Receptor Kinase A (TRKA), NTRK1 enzyme (Homo sapiens (Human), UniProt P04629); assay: TRKA (NTRK1) ThermoFisher Z'-LYTE enzyme assay; format: biochemical; settings: test compound 1 uM, ATP 1 mM; arithmetic mean of count n
Experimental: TRKA, also known as neurotrophic tyrosine kinase receptor type 1 (NTKR1) activity was determined by measuring the effect of a test compound on the activity against the NTRK1 enzyme using the ThermoFisher Z′-LYTE Assay fluorescence-based coupled enzyme format (www.thermofisher.com/selectscreen). Test compounds were screened at a fixed concentration of 1 uM and the % inhibition was determined compared to controls at a fixed ATP concentration of 1 mM. The resulting effect value for the tested compound was compared to the assay controls to determine the % inhibition (%).

[2] = tested on: activated CD4+ human T-cells (IL-2); assay: IL-2 inhibition in supernatants from activated CD4+ human T-cells (cisbio HTRF); format: cell-based; settings: T-cell; CD3/CD28-activated CD4+ human T cells, ImmunoCult stimulation 20 to 24 hrs; geometric mean of count n
Outline: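 Primary human CD4+ T cells activated with CD3/CD28 for 3 days and expanded to 7-9 days total, plated at 30,000 cells/well. Cells preincubated 15 min with compound, then stimulated with ImmunoCult (1:50 final) for 20-24 h at 37° C. Supernatant IL-2 measured by HTRF (665/615 nm); IC50 from four-parameter logistic fit.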

[3] = biological target: IL-2-Inducible T-Cell Kinase (ITK) (Homo sapiens (Human), UniProt Q08881); assay: ITK enzyme assay (IL-2-inducible T-cell kinase activity); format: biochemical; settings: geometric mean of count n
Chain of IL-2-Inducible T-Cell Kinase (ITK) (Q08881 whole entry): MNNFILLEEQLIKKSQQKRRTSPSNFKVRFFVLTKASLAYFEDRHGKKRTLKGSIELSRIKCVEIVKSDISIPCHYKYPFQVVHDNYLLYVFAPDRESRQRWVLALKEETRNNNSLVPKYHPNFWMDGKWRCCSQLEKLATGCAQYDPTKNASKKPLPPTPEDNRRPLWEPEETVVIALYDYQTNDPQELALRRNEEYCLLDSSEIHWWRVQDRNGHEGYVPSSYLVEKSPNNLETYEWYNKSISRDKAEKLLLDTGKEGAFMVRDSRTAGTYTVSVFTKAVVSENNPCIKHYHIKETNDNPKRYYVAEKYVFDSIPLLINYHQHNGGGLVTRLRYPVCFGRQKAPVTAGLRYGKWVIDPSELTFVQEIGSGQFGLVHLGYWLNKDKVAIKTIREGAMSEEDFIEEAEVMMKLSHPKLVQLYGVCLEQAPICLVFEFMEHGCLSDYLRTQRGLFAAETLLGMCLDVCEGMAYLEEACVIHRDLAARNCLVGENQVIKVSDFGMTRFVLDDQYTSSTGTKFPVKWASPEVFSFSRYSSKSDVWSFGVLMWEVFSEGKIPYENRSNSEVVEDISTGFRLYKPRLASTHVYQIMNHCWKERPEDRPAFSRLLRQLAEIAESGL
Outline: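 Full-length N-Flag/C-His human ITK, pre-incubated 30 min at RT with compound. Reaction in HEPES pH 7.5 buffer with MgCl2, glutathione, gelatin and Brij-35, started with BTK peptide substrate, 60 min at RT. EDTA stop, PT66/APC TR-FRET detection overnight; IC50 fitted by four-parameter logistic.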

Chain of Tropomyosin Receptor Kinase A (TRKA), NTRK1 enzyme (P04629 33-796): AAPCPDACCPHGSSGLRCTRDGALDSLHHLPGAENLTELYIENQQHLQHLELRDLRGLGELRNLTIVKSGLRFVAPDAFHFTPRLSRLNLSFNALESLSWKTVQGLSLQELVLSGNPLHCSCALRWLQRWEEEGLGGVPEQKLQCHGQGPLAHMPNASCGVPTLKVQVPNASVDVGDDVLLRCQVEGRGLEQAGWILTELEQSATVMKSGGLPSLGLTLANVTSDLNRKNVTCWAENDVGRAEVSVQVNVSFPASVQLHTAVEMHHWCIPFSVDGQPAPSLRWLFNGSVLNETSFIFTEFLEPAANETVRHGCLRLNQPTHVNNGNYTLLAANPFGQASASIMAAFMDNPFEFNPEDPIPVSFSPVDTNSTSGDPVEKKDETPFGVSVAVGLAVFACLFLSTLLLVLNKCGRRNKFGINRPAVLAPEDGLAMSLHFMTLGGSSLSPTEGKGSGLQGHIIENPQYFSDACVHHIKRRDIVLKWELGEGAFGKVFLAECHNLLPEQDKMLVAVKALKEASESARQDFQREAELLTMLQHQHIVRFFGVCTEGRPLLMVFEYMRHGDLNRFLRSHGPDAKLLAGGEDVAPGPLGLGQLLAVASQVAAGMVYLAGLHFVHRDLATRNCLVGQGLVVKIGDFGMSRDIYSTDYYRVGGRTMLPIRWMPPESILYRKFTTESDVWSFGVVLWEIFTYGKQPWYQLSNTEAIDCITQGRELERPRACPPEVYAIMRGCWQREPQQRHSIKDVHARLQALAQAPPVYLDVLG

| SMILES | inhibition at 1 µM [1] [%] | IC50 [2] [nM] | IC50 [3] [nM] |
| --- | --- | --- | --- |
| CN(C(=O)CN1CCCOC1=O)c1cnc2nc(-c3n[nH]c4c3C[C@@H]3C[C@]3(C)C4)[nH]c2c1 [Example 57, N-Methyl-N-(2-((4aS,5aR)-5a-methyl-1,4,4a,5,5a,6-hexahydrocyclopropa[f]indazol-3-yl)-1H-imidazo[4,5-b]pyridin-6-yl)-2-(2-oxo-1,3-oxazinan-3-yl)acetamide] | 106 | 974 | 36 |
| CN(C(=O)CN1CCOCC1)c1cnc2nc(-c3n[nH]c4c3C[C@@H]3C[C@]3(C)C4)[nH]c2c1 [Example 58, N-Methyl-N-(2-((4aS,5aR)-5a-methyl-1,4,4a,5,5a,6-hexahydrocyclopropa[f]indazol-3-yl)-1H-imidazo[4,5-b]pyridin-6-yl)-2-morpholinoacetamide] | 108 | 380 | 102 |
| CC(=O)N(C)CC(=O)N(C)c1cnc2nc(-c3n[nH]c4c3C[C@@H]3C[C@]3(C)C4)[nH]c2c1 [Example 80, N-Methyl-N-(2-((4aS,5aR)-5a-methyl-1,4,4a,5,5a,6-hexahydrocyclopropa[f]indazol-3-yl)-1H-imidazo[4,5-b]pyridin-6-yl)-2-(N-methylacetamido)acetamide] | 96 | 1250 | 54 |
| CN(C(=O)C(C)(C)C)c1cnc2nc(-c3n[nH]c4c3C[C@@H]3C[C@]3(C)C4)[nH]c2c1 [Example 86, N-Methyl-N-(2-((4aS,5aR)-5a-methyl-1,4,4a,5,5a,6-hexahydrocyclopropa[f]indazol-3-yl)-1H-imidazo[4,5-b]pyridin-6-yl)pivalamide] | 95 | 466 | 100 |

Molecules with a lower IC50 [2], results first:

| inhibition at 1 µM [1] [%] | IC50 [2] [nM] | IC50 [3] [nM] | SMILES |
| --- | --- | --- | --- |
| 95 | 172 | 47 | COc1nc2[nH]c(-c3n[nH]c4c3C[C@@H]3C[C@]3(C)C4)nc2cc1N(C)C(=O)[C@H](C)N1CCOCC1 [Example 36, (S)-N-(5-Methoxy-2-((4aS,5aR)-5a-methyl-1,4,4a,5,5a,6-hexahydrocyclopropa[f]indazol-3-yl)-3H-imidazo[4,5-b]pyridin-6-yl)-N-methyl-2-morpholinopropanamide] |
| 97 | 182 | 28 | COCCOc1nc2[nH]c(-c3n[nH]c4c3C[C@@H]3C[C@]3(C)C4)nc2cc1N(C)C(=O)[C@H](C)N1CCOCC1 [Example 40, (S)-N-(5-(2-Methoxyethoxy)-2-((4aS,5aR)-5a-methyl-1,4,4a,5,5a,6-hexahydrocyclopropa[f]indazol-3-yl)-3H-imidazo[4,5-b]pyridin-6-yl)-N-methyl-2-morpholinopropanamide] |
| 95 | 189 | 44 | CN(C(=O)CC1CCCCC1)c1cnc2nc(-c3n[nH]c4c3C[C@@H]3C[C@]3(C)C4)[nH]c2c1 [Example 47, 2-Cyclohexyl-N-methyl-N-(2-((4aS,5aR)-5a-methyl-1,4,4a,5,5a,6-hexahydrocyclopropa[f]indazol-3-yl)-1H-imidazo[4,5-b]pyridin-6-yl)acetamide] |
| 95 | 88 | 23 | CN(C(=O)C1(F)CCOCC1)c1cnc2nc(-c3n[nH]c4c3C[C@@H]3C[C@]3(C)C4)[nH]c2c1 [Example 61, 4-Fluoro-N-methyl-N-(2-((4aS,5aR)-5a-methyl-1,4,4a,5,5a,6-hexahydrocyclopropa[f]indazol-3-yl)-1H-imidazo[4,5-b]pyridin-6-yl)tetrahydro-2H-pyran-4-carboxamide] |
| 96 | 288 | 31 | CN(c1cnc2nc(-c3n[nH]c4c3C[C@@H]3C[C@]3(C)C4)[nH]c2c1)C(=O)[C@H]1C[C@H](C)C1 [Example 84, (1r,3S)-N,3-Dimethyl-N-(2-((4aS,5aR)-5a-methyl-1,4,4a,5,5a,6-hexahydrocyclopropa[f]indazol-3-yl)-1H-imidazo[4,5-b]pyridin-6-yl)cyclobutane-1-carboxamide] |
| 93 | 266 | 64 | CN(C(=O)C1(F)CCC1)c1cnc2[nH]c(-c3n[nH]c4c3CCC(C)(C)C4)nc2c1 [Example 95, N-(2-(6,6-Dimethyl-4,5,6,7-tetrahydro-1H-indazol-3-yl)-3H-imidazo[4,5-b]pyridin-6-yl)-1-fluoro-N-methylcyclobutane-1-carboxamide] |
| 92 | 287 | 56 | CN(C(=O)CCC(C)(F)F)c1cnc2[nH]c(-c3n[nH]c4c3CCC(C)(C)C4)nc2c1 [Example 97, N-(2-(6,6-Dimethyl-4,5,6,7-tetrahydro-1H-indazol-3-yl)-3H-imidazo[4,5-b]pyridin-6-yl)-4,4-difluoro-N-methylpentanamide] |
